# Source: a melting point compilation (Tetko et al.; mined from patent text by program, amines drawn as free bases though some values may be those of a salt)
row,SMILES,melting point
1,CC(C)C(O)(C#C[Si](C)(C)C)c1cncnc1 (centres undefined),117 °C
2,CCOC(=O)/C=C(C)/C(F)=C/C=C(C)/C=C/c1c(C)cc(C)c(Cl)c1C,100 to 104 °C
3,C=CCNc1nc(C)cc(C)n1,62 to 63 °C
4,Cc1nc2ncnn2c(N[C@@H](C)c2ccc(F)cc2)c1Cl,103 to 104 °C
5,Nc1c(-c2cccs2)nsc1C(=O)O,221 to 224 °C
6,CCOC(=O)c1cnn(-c2cccc(N(C)C)n2)c1S(N)(=O)=O,157 to 160 °C
7,NC(=O)CCc1ccncc1,164 to 166 °C
8,CC=CC(=O)Nc1n[nH]c2ccc(C)cc12,218 °C
9,COC1(OC)SC(c2ccncc2)=C(C)NC1=O,154 to 155 °C
10,N#Cc1cc(-c2cccs2)[nH]c1-c1cccs1,202 to 204 °C
11,C1=CCC2=C(C1)CCc1ccccc1C2,42.5 to 43 °C
12,CC(C)(C)c1cc(I)c(O)c(CNC(=O)C(F)(F)F)c1,118 to 119 °C
13,O=C1CCC(N2C(=O)c3cccc(OCc4nc(CN5CCOCC5)cs4)c3C2=O)C(=O)N1 (centres undefined),210 to 212 °C
14,CNc1nc(C)c(-c2sc(NC)nc2C)s1,> 280 °C
15,Cc1ccc(N2C(=O)N(CC(=O)O)C(=O)C23CCCCC3)cc1,206 °C
16,CC(=O)OC1CSC(Oc2ccc(C(=O)NCc3ccccc3)nc2)C(OC(C)=O)C1OC(C)=O (centres undefined),177 to 178 °C
17,CN(C)C1Cc2cccc3ccn(c23)C1 (centres undefined),114 to 115 °C
18,CC(=Cc1cccc(SC(F)(F)F)c1)[N+](=O)[O-],48 °C
19,OCCCCOC(c1ccccc1)(c1ccccc1)c1ccccc1,73 to 74 °C

row,SMILES,melting point
1,CC(C)(NC=O)c1cc(Cl)cc(Cl)c1,115 to 117 °C
2,CCN1CCN(c2ccc(Br)cc2)CC1,112 °C
3,O=C1CCCCC1c1ccccc1F (centres undefined),47 to 49 °C
4,CCCC[C@@H](C)C(C(=O)O)C(=O)O,123 °C
5,N=c1sc2cc(OC(F)(F)F)ccc2n1CCS(=O)c1ncccn1 (centres undefined),120 °C
6,CCCCCCCCCCCc1cc2ccc(C(=O)O)cc2n1C,165 to 168 °C
7,COC(=O)C(Cc1ccccc1)NC(=O)C(N)(CC(=O)O)C(=O)N1CCCCC1 (centres undefined),225 to 227 °C
8,O=c1cc(-c2ccncn2)nc2n1CCCN2,268 to 272 °C
9,CS(=O)(=O)CCCCC(Cc1ccccc1)S(=O)(=O)c1ccc(Cl)cc1 (centres undefined),68 to 70 °C
10,COC1(C)COC(C)(OC)CO1 (centres undefined),126 to 128 °C
11,CC(C)(C)OC(=O)NC(Cc1ccccc1)C(=O)NC(Cc1ccc(C(F)(F)F)cc1)C(O)c1ccc(F)cc1 (mixture of isomers),230 to 231 °C
12,C=CCc1c(Br)cc(C(C)(C)c2cc(Br)c(CC=C)c(Br)c2)cc1Br,114 °C
13,CN(C)CCN1CCC(=Cc2cc(C(C)(C)C)c(O)c(C(C)(C)C)c2)C1=O,150 °C
14,COC(=O)CCC(=O)c1ccc(S)cc1,83 to 84 °C
15,CCOC(=O)C(Cc1ccccc1CCBr)(NC(C)=O)C(=O)OCC,86 to 86.5 °C
16,COC(=O)c1ccc(CC#N)cc1S(=O)(=O)NC(C)(C)C,86 to 88 °C
17,OC1(c2cccs2)CCN(CCCc2nnc3n2CCCCC3)CC1,162 to 163 °C
18,Cc1nn(CCN)c(C)c1Cc1cc(Cl)cc(Cl)c1,70 to 72 °C
19,CN(C)C(=S)SC(C[N+](=O)[O-])c1ccc(Cl)s1 (centres undefined),76 to 77 °C

# The next lines start with the values.
row,melting point,SMILES
1,262 °C,NS(=O)(=O)c1ccc(-c2cc(-c3nc(-c4ccc(C(F)(F)F)nc4)cc(C(F)(F)F)n3)ccn2)s1
2,118 to 120 °C,COc1ccc(NC(=O)N=C2CCCN2C)cc1OC
3,153 to 156 °C,Cc1ccc(-c2ccc(S(=O)(=O)Nc3onc(C)c3Br)cc2)cc1
4,97 °C,CCCCOc1cc(/C=C(\OCC)C(=O)O)ccc1OCCc1ccc(OS(C)(=O)=O)c(OC)c1
5,146 to 147 °C,CN1CC[C@@H](c2c(O)cc(O)c3c(=O)cc(-c4cccc(Cl)c4)oc23)[C@@H]1CO
6,169 to 170 °C,O=C1CCc2ccc(OCCCCN3CCN(c4cccc5c4CCCC5=O)CC3)nc2N1
7,175 to 190 °C,CCCCc1oc2ccccc2c1C(=O)NCc1ccc(-c2ccc(OCC(=O)O)c(Br)c2)cc1
8,88 to 90 °C,COC(=O)c1cc(C2(c3ccc(F)c(-c4cncnc4)c3)N=C(N)N(C)C2=O)cn1CCF (centres undefined)
9,216 to 218 °C,COc1cc2occ(-c3ccccc3)c(=O)c2c(Cl)c1Cl
10,172 to 174 °C,CC(=O)SCC(Cc1ccc(F)cc1)C(=O)Nc1cccc(C(=O)O)c1 (centres undefined)
11,101 to 102 °C,CCCSc1cn(C)cc(-c2cccc(C(F)(F)F)c2)c1=O
12,120 °C,COc1ccc(C=O)cc1C
13,97 to 99 °C,CCCCn1cnc2c(Oc3ccccc3)nc(Nc3ccc(OC)cc3OC)nc21
14,136 °C,Brc1ccc(Cc2cc3ccccc3[nH]2)cc1
15,129 to 131 °C,CCc1nc2c(cnn2CC)c(NC2CCOCC2)c1CNC(=O)c1cccc(C(=O)NCc2ccc(OC)c(-c3cccc(CN4CC5CC4CN5)c3)c2)c1 (centres undefined)
16,52 to 54 °C,CSc1ccc(C2=C(Br)CCC2)cc1
17,64 to 65 °C,OC(CCc1ccc2c(c1)OCO2)C1CC1 (centres undefined)
18,180 °C,CN(C)S(=O)(=O)c1cc(-c2csc(=Nc3ccccc3)n2C)ccc1Cl

row,melting point,SMILES
1,> 250 °C,O=C(Nn1c(=O)c(=O)[nH]c2cc(C(F)(F)F)c([N+](=O)[O-])cc21)C(F)(F)F
2,180 to 185 °C,Cc1nc2c(-c3cccc(N4CCN(C5CCN(C)CC5)CC4)c3)cnn2c(N)c1-c1cccc(Cl)c1
3,144 to 145 °C,COC(=O)c1cc2c(s1)[C@@H](N1CCCCC1=O)[C@H](OCc1ccccc1)C(C)(C)O2 (relative stereo)
4,106 to 108 °C,CC(C)(C)c1cc(C(=O)OCCC(=O)Oc2ccc(Cl)c([N+](=O)[O-])c2)cc(C(C)(C)C)c1O
5,105 to 107 °C,COc1ccc(-c2cnc(-c3ccncc3)o2)cc1
6,86 to 88 °C,CC(C)(C)COc1ccc([N+](=O)[O-])cc1Br
7,163 to 166 °C,Cc1cc(C)cc(-c2cc(C)cn2-c2ccc(S(N)(=O)=O)cc2)c1
8,49 to 50 °C,C#CCOC(=O)c1c(F)cccc1Oc1nc(OC)cc(OC)n1
9,165 to 167 °C,COc1ccc2cc(-c3cc4c(cc3[N+](=O)[O-])OCO4)ccc2c1
10,204 to 205 °C,O=C(c1ccc(O)cc1)c1c(-c2ccccc2)ccc2ccccc12
11,116 to 118 °C,CC(=O)SC(CC(=S)c1ccc(-c2ccccc2)cc1)C(=O)O (centres undefined)
12,247 to 248 °C,CC1CC(=O)NN=C1c1ccc(N2CCN(C#N)CC2)c([N+](=O)[O-])c1 (centres undefined)
13,211 to 213 °C,Nc1cc(S(=O)(=O)c2ccccc2)c([N+](=O)[O-])c2cccnc12
14,278 to 280 °C,CC(C)(C)c1ccc(S(=O)(=O)Nc2ccc(-c3cn(C4CCCC4)c4ncnc(N)c34)cc2O)cc1
15,161 to 164 °C,CCOCc1nc2c(N)nc3cc(-n4ccccc4=O)ccc3c2n1CCCOC(C)C
16,197 to 199 °C,CC(=O)Nc1cccc(-c2ccc(C)c(COc3cccc4ccc(C)nc34)c2C)c1
17,122 to 123 °C,N=C(N)c1ccc2cc(OC(=O)CCCCCN)ccc2c1
18,263 to 264 °C,CS(=O)(=O)c1ccc(-n2cc(CC(=O)O)nc2-c2ccc(Cl)cc2)cc1
